Mass density data for 4 compounds are collected here from the NIST ThermoML archive (doi:10.1016/j.fluid.2011.12.008).

Numbers after ± are expanded uncertainties.

The conditions of the data set: 298.15 K; 101.33 kPa; Liquid; Vibrating tube method.

`CCC[N+](C)(C)CC.O=S(=O)([N-]S(=O)(=O)C(F)(F)F)C(F)(F)F`: the mass density was 1403.5 ± 0.6 kg/m3. The value for `CCCC[N+]1(C)CCCC1.O=S(=O)([N-]S(=O)(=O)C(F)(F)F)C(F)(F)F` was 1394.3 ± 0.6 kg/m3; that for `CCCCCC[N+]1(C)CCCC1.O=S(=O)([N-]S(=O)(=O)C(F)(F)F)C(F)(F)F` was 1336 ± 1.6 kg/m3; that for `CCCCCC[n+]1ccn(C)c1.O=S(=O)([N-]S(=O)(=O)C(F)(F)F)C(F)(F)F` was 1371.6 ± 0.7 kg/m3.

As a reminder, the mass density is the mass of a sample divided by its volume.
